Publication PMC5078040 (Oncotarget, 2016)

Tests used:
[1] = biological target: T1, ABL1(F317L)-nonphosphorylated (Homo sapiens, UniProt P00519, F317L); test: KinomeScan; assay type: binding; conditions: 1uM
T1 construct: purchased DiscoveRx KINOMEscan

BRAF = biological target: T2, BRAF (Homo sapiens, UniProt P15056); test: KinomeScan; assay type: binding; conditions: 1uM
T2 construct: purchased DiscoveRx KINOMEscan

CAMK2B = biological target: T3, CAMK2B (Homo sapiens, UniProt Q13554); test: KinomeScan; assay type: binding; conditions: 1uM
T3 construct: purchased DiscoveRx KINOMEscan

CDKL1 = biological target: T4, CDKL1 (Homo sapiens, UniProt Q00532); test: KinomeScan; assay type: binding; conditions: 1uM
T4 construct: purchased DiscoveRx KINOMEscan

CSNK1G2 = biological target: T5, CSNK1G2 (Homo sapiens, UniProt P78368); test: KinomeScan; assay type: binding; conditions: 1uM
T5 construct: purchased DiscoveRx KINOMEscan

CSNK2A2 = biological target: T6, CSNK2A2 (Homo sapiens, UniProt P19784); test: KinomeScan; assay type: binding; conditions: 1uM
T6 construct: purchased DiscoveRx KINOMEscan

DDR2 = biological target: T7, DDR2 (Homo sapiens, UniProt Q16832); test: KinomeScan; assay type: binding; conditions: 1uM
T7 construct: purchased DiscoveRx KINOMEscan

DRAK2 = biological target: T8, DRAK2 (Homo sapiens, UniProt O94768); test: KinomeScan; assay type: binding; conditions: 1uM
T8 construct: purchased DiscoveRx KINOMEscan

ERK5 = biological target: T9, ERK5 (Homo sapiens, UniProt Q13164); test: KinomeScan; assay type: binding; conditions: 1uM
T9 construct: purchased DiscoveRx KINOMEscan

FGFR4 = biological target: T10, FGFR4 (Homo sapiens, UniProt P22455); test: KinomeScan; assay type: binding; conditions: 1uM
T10 construct: purchased DiscoveRx KINOMEscan

HIPK3 = biological target: T11, HIPK3 (Homo sapiens, UniProt Q9H422); test: KinomeScan; assay type: binding; conditions: 1uM
T11 construct: purchased DiscoveRx KINOMEscan

ITK = biological target: T12, ITK (Homo sapiens, UniProt Q08881); test: KinomeScan; assay type: binding; conditions: 1uM
T12 construct: purchased DiscoveRx KINOMEscan

JNK2 = biological target: T13, JNK2 (Homo sapiens, UniProt P45984); test: KinomeScan; assay type: binding; conditions: 1uM
T13 construct: purchased DiscoveRx KINOMEscan

KIT(V559D,T670I) = biological target: T14, KIT(V559D,T670I) (Homo sapiens, UniProt P10721, T670I/V559D); test: KinomeScan; assay type: binding; conditions: 1uM
T14 construct: purchased DiscoveRx KINOMEscan

KIT(V559D,V654A) = biological target: T15, KIT(V559D,V654A) (Homo sapiens, UniProt P10721, V559D/V654A); test: KinomeScan; assay type: binding; conditions: 1uM
T15 construct: purchased DiscoveRx KINOMEscan

LYN = biological target: T16, LYN (Homo sapiens, UniProt P07948); test: KinomeScan; assay type: binding; conditions: 1uM
T16 construct: purchased DiscoveRx KINOMEscan

MAP3K15 = biological target: T17, MAP3K15 (Homo sapiens, UniProt Q6ZN16); test: KinomeScan; assay type: binding; conditions: 1uM
T17 construct: purchased DiscoveRx KINOMEscan

MAP4K2 = biological target: T18, MAP4K2 (Homo sapiens, UniProt Q12851); test: KinomeScan; assay type: binding; conditions: 1uM
T18 construct: purchased DiscoveRx KINOMEscan

MAP4K4 = biological target: T19, MAP4K4 (Homo sapiens, UniProt O95819); test: KinomeScan; assay type: binding; conditions: 1uM
T19 construct: purchased DiscoveRx KINOMEscan

MAP4K5 = biological target: T20, MAP4K5 (Homo sapiens, UniProt Q9Y4K4); test: KinomeScan; assay type: binding; conditions: 1uM
T20 construct: purchased DiscoveRx KINOMEscan

MAST1 = biological target: T21, MAST1 (Homo sapiens, UniProt Q9Y2H9); test: KinomeScan; assay type: binding; conditions: 1uM
T21 construct: purchased DiscoveRx KINOMEscan

MEK5 = biological target: T22, MEK5 (Homo sapiens, UniProt Q13163); test: KinomeScan; assay type: binding; conditions: 1uM
T22 construct: purchased DiscoveRx KINOMEscan

MET(M1250T) = biological target: T23, MET(M1250T) (Homo sapiens, UniProt P08581, M1250T); test: KinomeScan; assay type: binding; conditions: 1uM
T23 construct: purchased DiscoveRx KINOMEscan

MKNK1 = biological target: T24, MKNK1 (Homo sapiens, UniProt Q9BUB5); test: KinomeScan; assay type: binding; conditions: 1uM
T24 construct: purchased DiscoveRx KINOMEscan

NEK9 = biological target: T25, NEK9 (Homo sapiens, UniProt Q8TD19); test: KinomeScan; assay type: binding; conditions: 1uM
T25 construct: purchased DiscoveRx KINOMEscan

PAK6 = biological target: T26, PAK6 (Homo sapiens, UniProt Q9NQU5); test: KinomeScan; assay type: binding; conditions: 1uM
T26 construct: purchased DiscoveRx KINOMEscan

PAK7 = biological target: T27, PAK7 (Homo sapiens, UniProt Q9P286); test: KinomeScan; assay type: binding; conditions: 1uM
T27 construct: purchased DiscoveRx KINOMEscan

PDPK1 = biological target: T28, PDPK1 (Homo sapiens, UniProt O15530); test: KinomeScan; assay type: binding; conditions: 1uM
T28 construct: purchased DiscoveRx KINOMEscan

PIP5K2C = biological target: T29, PIP5K2C (Homo sapiens, UniProt Q8TBX8); test: KinomeScan; assay type: binding; conditions: 1uM
T29 construct: purchased DiscoveRx KINOMEscan

PKN1 = biological target: T30, PKN1 (Homo sapiens, UniProt Q16512); test: KinomeScan; assay type: binding; conditions: 1uM
T30 construct: purchased DiscoveRx KINOMEscan

PLK1 = biological target: T31, PLK1 (Homo sapiens, UniProt P53350); test: KinomeScan; assay type: binding; conditions: 1uM
T31 construct: purchased DiscoveRx KINOMEscan

[2] = biological target: T32, RSK2(Kin.Dom.1-N-terminal) (Homo sapiens, UniProt P51812); test: KinomeScan; assay type: binding; conditions: 1uM
T32 construct: RSK2(Kin.Dom.1-N-terminal); purchased DiscoveRx KINOMEscan

SIK = biological target: T33, SIK (Homo sapiens, UniProt P57059); test: KinomeScan; assay type: binding; conditions: 1uM
T33 construct: purchased DiscoveRx KINOMEscan

SIK2 = biological target: T34, SIK2 (Homo sapiens, UniProt Q9H0K1); test: KinomeScan; assay type: binding; conditions: 1uM
T34 construct: purchased DiscoveRx KINOMEscan

SRPK1 = biological target: T35, SRPK1 (Homo sapiens, UniProt Q96SB4); test: KinomeScan; assay type: binding; conditions: 1uM
T35 construct: purchased DiscoveRx KINOMEscan

TAOK1 = biological target: T36, TAOK1 (Homo sapiens, UniProt Q7L7X3); test: KinomeScan; assay type: binding; conditions: 1uM
T36 construct: purchased DiscoveRx KINOMEscan

TEC = biological target: T37, TEC (Homo sapiens, UniProt P42680); test: KinomeScan; assay type: binding; conditions: 1uM
T37 construct: purchased DiscoveRx KINOMEscan

TLK1 = biological target: T38, TLK1 (Homo sapiens, UniProt Q9UKI8); test: KinomeScan; assay type: binding; conditions: 1uM
T38 construct: purchased DiscoveRx KINOMEscan

TSSK1B = biological target: T39, TSSK1B (Homo sapiens, UniProt Q9BXA7); test: KinomeScan; assay type: binding; conditions: 1uM
T39 construct: purchased DiscoveRx KINOMEscan

[3] = biological target: T40, TYK2(JH1domain-catalytic) (Homo sapiens, UniProt P29597); test: KinomeScan; assay type: binding; conditions: 1uM
T40 construct: TYK2(JH1domain-catalytic); purchased DiscoveRx KINOMEscan

VEGFR2 = biological target: T41, VEGFR2 (Homo sapiens, UniProt P35968); test: KinomeScan; assay type: binding; conditions: 1uM
T41 construct: purchased DiscoveRx KINOMEscan

WNK1 = biological target: T42, WNK1 (Homo sapiens, UniProt Q9H4A3); test: KinomeScan; assay type: binding; conditions: 1uM
T42 construct: purchased DiscoveRx KINOMEscan

PIK3C2A = biological target: T43, PIK3C2A (Homo sapiens, UniProt O00443); test: ADP-glo biochemical assay
T43 construct: purchased Invitrogen
Protocol: The reaction in each tube was started immediately by adding ATP and kept going for an hour under 37°C. After the tube cooled for 5 minutes at room temperature, 5 μL solvent reactions were carried out in a 384-well plate. Then 5 μL of ADP-Glo™ reagent was added into each well to stop the reaction and consume the remaining ADP within 40 minutes. At the end, 10 μL of kinase detection reagent was added into the well and incubated for 30 minutes to produce a luminescence signal. Luminescence signal was measured with an automated plate reader (Perkin-Elmer Envision) and each measurement was performed in triplicate.

T23 sequence (P08581 25-1390 M1250T): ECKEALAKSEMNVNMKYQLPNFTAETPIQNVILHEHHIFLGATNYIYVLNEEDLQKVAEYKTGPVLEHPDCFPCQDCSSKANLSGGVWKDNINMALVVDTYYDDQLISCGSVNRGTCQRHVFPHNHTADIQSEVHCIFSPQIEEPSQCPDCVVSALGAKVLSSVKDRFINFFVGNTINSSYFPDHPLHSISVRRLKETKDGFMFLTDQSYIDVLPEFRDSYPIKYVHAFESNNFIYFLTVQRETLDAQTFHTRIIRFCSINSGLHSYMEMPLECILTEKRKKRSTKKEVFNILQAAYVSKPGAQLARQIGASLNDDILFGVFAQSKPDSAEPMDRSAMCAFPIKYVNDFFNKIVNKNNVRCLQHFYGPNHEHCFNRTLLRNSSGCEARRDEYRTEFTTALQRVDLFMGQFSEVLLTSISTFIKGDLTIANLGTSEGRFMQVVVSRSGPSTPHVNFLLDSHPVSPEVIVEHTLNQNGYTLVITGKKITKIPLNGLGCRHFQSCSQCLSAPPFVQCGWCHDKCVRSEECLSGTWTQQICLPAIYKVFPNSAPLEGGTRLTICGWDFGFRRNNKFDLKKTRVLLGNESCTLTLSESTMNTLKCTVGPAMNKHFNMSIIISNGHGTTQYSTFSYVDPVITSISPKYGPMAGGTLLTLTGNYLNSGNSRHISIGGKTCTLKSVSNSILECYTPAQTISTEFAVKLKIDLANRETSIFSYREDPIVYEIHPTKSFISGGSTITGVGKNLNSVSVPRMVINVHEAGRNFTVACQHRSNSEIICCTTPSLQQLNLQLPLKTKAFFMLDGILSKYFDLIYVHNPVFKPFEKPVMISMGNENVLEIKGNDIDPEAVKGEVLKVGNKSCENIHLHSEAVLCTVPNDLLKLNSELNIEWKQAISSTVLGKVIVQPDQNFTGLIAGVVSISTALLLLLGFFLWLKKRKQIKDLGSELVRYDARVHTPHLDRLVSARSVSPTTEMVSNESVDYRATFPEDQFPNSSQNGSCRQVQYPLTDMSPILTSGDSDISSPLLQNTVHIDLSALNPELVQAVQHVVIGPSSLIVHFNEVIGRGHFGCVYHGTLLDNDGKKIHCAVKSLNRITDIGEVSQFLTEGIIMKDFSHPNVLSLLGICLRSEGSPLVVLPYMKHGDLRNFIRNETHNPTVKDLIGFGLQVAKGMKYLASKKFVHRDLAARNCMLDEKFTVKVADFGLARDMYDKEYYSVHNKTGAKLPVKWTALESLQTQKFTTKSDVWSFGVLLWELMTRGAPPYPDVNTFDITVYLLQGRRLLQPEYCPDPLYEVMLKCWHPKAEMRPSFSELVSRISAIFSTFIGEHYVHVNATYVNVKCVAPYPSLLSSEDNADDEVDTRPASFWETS
T37 sequence (P42680 whole entry): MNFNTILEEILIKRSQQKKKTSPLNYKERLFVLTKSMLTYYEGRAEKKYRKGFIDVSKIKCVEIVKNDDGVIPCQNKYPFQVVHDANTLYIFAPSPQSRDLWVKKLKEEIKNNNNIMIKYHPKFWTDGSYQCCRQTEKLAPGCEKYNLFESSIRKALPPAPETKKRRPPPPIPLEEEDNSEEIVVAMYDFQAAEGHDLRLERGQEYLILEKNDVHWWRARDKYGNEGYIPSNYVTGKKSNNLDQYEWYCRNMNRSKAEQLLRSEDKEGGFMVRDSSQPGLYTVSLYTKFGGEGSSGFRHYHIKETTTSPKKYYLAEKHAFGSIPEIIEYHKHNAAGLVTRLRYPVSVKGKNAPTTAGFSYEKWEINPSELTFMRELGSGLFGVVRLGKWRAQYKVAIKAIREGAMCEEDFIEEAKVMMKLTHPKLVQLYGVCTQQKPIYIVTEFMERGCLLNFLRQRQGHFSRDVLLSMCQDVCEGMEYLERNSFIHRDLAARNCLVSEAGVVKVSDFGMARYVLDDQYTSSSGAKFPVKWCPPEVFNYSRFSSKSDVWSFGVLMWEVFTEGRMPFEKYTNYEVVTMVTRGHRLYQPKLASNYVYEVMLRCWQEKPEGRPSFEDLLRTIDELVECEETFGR
T34 sequence (Q9H0K1 whole entry): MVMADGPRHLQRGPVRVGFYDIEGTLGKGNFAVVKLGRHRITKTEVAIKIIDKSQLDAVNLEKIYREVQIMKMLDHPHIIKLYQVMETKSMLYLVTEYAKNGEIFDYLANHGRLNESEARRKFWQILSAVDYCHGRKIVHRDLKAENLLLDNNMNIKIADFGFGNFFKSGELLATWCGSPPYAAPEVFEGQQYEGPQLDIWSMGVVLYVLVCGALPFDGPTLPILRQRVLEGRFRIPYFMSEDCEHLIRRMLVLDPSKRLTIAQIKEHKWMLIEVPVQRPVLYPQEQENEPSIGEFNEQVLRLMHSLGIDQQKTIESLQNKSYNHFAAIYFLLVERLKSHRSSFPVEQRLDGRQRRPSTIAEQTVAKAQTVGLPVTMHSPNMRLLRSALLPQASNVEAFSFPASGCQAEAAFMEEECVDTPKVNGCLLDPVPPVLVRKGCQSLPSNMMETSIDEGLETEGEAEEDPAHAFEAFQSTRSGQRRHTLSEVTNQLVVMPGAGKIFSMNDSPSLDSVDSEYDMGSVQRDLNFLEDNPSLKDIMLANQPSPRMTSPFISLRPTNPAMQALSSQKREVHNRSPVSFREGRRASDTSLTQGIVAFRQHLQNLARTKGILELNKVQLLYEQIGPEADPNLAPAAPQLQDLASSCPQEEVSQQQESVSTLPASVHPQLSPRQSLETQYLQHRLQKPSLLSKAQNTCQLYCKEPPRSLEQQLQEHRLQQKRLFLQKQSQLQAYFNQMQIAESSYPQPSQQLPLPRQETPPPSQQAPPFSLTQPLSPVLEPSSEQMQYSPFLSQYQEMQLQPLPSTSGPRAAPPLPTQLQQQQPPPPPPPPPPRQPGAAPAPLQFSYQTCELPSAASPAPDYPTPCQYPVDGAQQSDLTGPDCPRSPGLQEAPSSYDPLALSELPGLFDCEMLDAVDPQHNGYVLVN
T35 sequence (Q96SB4 whole entry): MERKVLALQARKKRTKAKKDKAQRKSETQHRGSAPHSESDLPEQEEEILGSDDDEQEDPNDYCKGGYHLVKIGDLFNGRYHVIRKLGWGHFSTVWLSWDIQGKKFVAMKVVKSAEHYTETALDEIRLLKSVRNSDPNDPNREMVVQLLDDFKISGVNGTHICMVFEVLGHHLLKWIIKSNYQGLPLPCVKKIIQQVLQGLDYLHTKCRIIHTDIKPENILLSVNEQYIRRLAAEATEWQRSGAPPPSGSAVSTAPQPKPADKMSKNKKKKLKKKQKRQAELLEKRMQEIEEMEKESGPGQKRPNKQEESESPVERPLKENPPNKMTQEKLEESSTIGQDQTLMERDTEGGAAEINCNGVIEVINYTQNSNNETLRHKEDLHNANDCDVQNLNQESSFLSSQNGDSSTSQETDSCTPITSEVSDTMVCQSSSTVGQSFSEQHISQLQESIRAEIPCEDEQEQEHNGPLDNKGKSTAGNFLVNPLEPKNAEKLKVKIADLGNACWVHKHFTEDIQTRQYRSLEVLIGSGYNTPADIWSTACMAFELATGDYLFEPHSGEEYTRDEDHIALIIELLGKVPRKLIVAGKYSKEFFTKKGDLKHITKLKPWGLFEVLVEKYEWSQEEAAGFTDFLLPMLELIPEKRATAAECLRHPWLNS
T38 sequence (Q9UKI8 whole entry): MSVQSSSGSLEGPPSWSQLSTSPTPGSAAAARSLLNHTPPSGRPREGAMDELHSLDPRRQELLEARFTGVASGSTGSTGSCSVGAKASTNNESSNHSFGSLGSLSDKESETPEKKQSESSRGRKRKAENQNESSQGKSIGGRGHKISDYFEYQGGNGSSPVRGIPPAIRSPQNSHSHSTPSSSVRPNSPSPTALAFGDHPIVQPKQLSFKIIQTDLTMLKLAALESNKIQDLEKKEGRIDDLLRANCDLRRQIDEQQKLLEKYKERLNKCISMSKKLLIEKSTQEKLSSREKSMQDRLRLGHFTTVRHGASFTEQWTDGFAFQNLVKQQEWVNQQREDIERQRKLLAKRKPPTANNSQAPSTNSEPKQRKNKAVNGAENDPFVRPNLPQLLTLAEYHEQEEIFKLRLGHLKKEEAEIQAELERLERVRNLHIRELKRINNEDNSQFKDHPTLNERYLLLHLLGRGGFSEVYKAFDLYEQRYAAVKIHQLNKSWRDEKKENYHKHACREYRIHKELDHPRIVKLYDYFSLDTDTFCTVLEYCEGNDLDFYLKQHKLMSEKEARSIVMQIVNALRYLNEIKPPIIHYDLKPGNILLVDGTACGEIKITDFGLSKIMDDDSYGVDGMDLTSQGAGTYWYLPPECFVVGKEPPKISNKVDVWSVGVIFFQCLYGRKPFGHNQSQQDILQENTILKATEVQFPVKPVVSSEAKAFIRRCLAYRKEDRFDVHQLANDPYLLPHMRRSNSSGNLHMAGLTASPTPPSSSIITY
T3 sequence (Q13554 whole entry): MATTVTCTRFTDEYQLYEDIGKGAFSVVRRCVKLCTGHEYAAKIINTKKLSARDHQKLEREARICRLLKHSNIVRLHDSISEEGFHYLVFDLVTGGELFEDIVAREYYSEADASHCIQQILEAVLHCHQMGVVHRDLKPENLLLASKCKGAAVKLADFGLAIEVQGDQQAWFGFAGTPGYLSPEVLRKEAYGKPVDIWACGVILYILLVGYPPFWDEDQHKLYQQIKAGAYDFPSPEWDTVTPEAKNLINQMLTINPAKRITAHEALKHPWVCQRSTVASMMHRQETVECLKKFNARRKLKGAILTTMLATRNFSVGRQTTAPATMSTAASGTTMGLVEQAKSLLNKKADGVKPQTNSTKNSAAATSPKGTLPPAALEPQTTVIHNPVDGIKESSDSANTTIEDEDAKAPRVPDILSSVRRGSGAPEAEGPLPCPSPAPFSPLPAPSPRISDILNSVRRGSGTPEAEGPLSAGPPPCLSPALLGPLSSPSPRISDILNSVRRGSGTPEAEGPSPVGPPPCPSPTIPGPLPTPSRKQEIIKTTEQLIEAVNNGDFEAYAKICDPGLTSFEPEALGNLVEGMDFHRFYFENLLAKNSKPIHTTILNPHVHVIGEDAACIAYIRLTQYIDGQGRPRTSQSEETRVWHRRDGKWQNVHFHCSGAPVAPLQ

Cc1nc(NC(=O)[C@@H](N)C(C)C)sc1-c1cnc(Cl)c(NS(=O)(=O)c2ccccc2)c1 [PI3KD-IN-015]
KinomeScan ABL1(F317L)-nonphosphorylated [1]: 100 | KinomeScan BRAF (BRAF): 93 | KinomeScan CAMK2B (CAMK2B): 91 | KinomeScan CDKL1 (CDKL1): 100 | KinomeScan CSNK1G2 (CSNK1G2): 100 | KinomeScan CSNK2A2 (CSNK2A2): 39 | KinomeScan DDR2 (DDR2): 96 | KinomeScan DRAK2 (DRAK2): 70 | KinomeScan ERK5 (ERK5): 100 | KinomeScan FGFR4 (FGFR4): 93 | KinomeScan HIPK3 (HIPK3): 100 | KinomeScan ITK (ITK): 100 | KinomeScan JNK2 (JNK2): 100 | KinomeScan KIT(V559D,T670I) (KIT(V559D,T670I)): 90 | KinomeScan KIT(V559D,V654A) (KIT(V559D,V654A)): 97 | KinomeScan LYN (LYN): 100 | KinomeScan MAP3K15 (MAP3K15): 80 | KinomeScan MAP4K2 (MAP4K2): 91 | KinomeScan MAP4K4 (MAP4K4): 100 | KinomeScan MAP4K5 (MAP4K5): 100 | KinomeScan MAST1 (MAST1): 100 | KinomeScan MEK5 (MEK5): 94 | KinomeScan MET(M1250T) (MET(M1250T)): 74 | KinomeScan MKNK1 (MKNK1): 100 | KinomeScan NEK9 (NEK9): 100 | KinomeScan PAK6 (PAK6): 91 | KinomeScan PAK7 (PAK7): 89 | KinomeScan PDPK1 (PDPK1): 100 | KinomeScan PIP5K2C (PIP5K2C): 90 | KinomeScan PKN1 (PKN1): 100 | KinomeScan PLK1 (PLK1): 90 | KinomeScan RSK2(Kin.Dom.1-N-terminal) [2]: 100 | KinomeScan SIK (SIK): 99 | KinomeScan SIK2 (SIK2): 95 | KinomeScan SRPK1 (SRPK1): 93 | KinomeScan TAOK1 (TAOK1): 96 | KinomeScan TEC (TEC): 100 | KinomeScan TLK1 (TLK1): 79 | KinomeScan TSSK1B (TSSK1B): 97 | KinomeScan TYK2(JH1domain-catalytic) [3]: 100 | KinomeScan VEGFR2 (VEGFR2): 99 | KinomeScan WNK1 (WNK1): 100 | IC50 (PIK3C2A): > 10 µM
